Legend:
[1] = Flavor profiles of megastigmane derivative solutions in water compared with sucrose solution
Excerpt: The flavor profiles of various megastigmane derivative solutions in water including lauroside A (0.5 ppm), ampelopsisionoside (0.5 ppm), bridelionoside F (0.5 ppm), actinidioionoside (0.5 ppm) and roseoside solutions (0.5 ppm) were each compared with that of sucrose solution (1.5%).

[2] = Enhancement of sucrose sweetness: flavor profile of sucrose base solution with added megastigmane derivative; conditions: 0.5 ppm in sucrose base solution (4%)
Description: (§1) A sucrose base solution (4%) (“base”) was prepared in water.
Solutions of lauroside A, ampelopsisionoside, bridelionoside F and actinidioionoside were prepared in water (0.01%).
The solutions of lauroside A, ampelopsisionoside, bridelionoside F and actinidioionoside (0.01%) were added to the base, respectively, to a final concentration of 0.5 ppm. The flavor profiles of the sucrose base solution with added megastigmane derivatives are reported in the following: […]

[3] = Sweetness enhancement at different concentrations: flavor profile of sucrose base solution with added roseoside
Description: as §1
Roseoside was added to the base to provide a series of solutions with concentrations ranging from 1 ppb to 5 ppm. The flavor profile of the sucrose solution with added roseoside is reported in the following: […]

[4] = Enhancement of mouthfeel by roseoside in water
[5] = 0.5 ppm in water, compared with sucrose solution (1.5%)

Row | Compound | sweet taste (flavor profile) [1, 5] | Flavor Profile [2] | other results
1 | CC(/C=C/C1(O)C(C)(C)CC(O)CC1(C)O)OC1OC(CO)C(O)C(O)C1O (stereo not shown) [Actinidioionoside, actinidioionoside] | none of the megastigmane derivation solutions exhibited a sweet taste | Enhanced sweetness and mouthfeel | –
2 | CC(/C=C/C1(O)C(C)CC(=O)CC1(C)C)OC1OC(CO)C(O)C(O)C1O (stereo not shown) [Ampelopsisionoside, ampelopsisionoside] | none of the megastigmane derivation solutions exhibited a sweet taste | – | –
3 | CC1=C(/C=C/C(C)OC2OC(CO)C(O)C(O)C2O)C(C)(C)CC(O)C1O (stereo not shown) [Bridelionoside F, bridelionoside F] | none of the megastigmane derivation solutions exhibited a sweet taste | Enhanced sweetness and mouthfeel with para | –
4 | CC(/C=C/C1(O)C(C)CC(=O)CC1(C)C)OC1OC(CO)C(O)C(O)C1O (stereo not shown) [Lauroside A, lauroside A] | none of the megastigmane derivation solutions exhibited a sweet taste | Enhanced sweetness and mouthfeel, mouth coating, | –
5 | CC1=CC(=O)CC(C)(C)C1(O)/C=C/C(C)OC1OC(CO)C(O)C(O)C1O (stereo not shown) [Roseoside, roseoside] | none of the megastigmane derivation solutions exhibited a sweet taste | – | Flavor Profile ([3]; 1 ppb in sucrose base solution (4%)): Slightly enhanced sweetness and viscous mouthfeel; Flavor Profile ([3]; 1 ppm in sucrose base solution (4%)): Slightly enhanced and lingering sweetness, viscous; Flavor Profile ([3]; 5 ppm in sucrose base solution (4%)): More enhanced and lingering sweetness, slight; Flavor Profile ([3]; 10 ppb in sucrose base solution (4%)): Slightly enhanced and lingering sweetness, viscous; Flavor Profile ([3]; 100 ppb in sucrose base solution (4%)): Slightly enhanced and lingering sweetness, viscous; Flavor Profile ([4]; 0.5 ppm in water): Slight astringency, not sweet; Flavor Profile ([4]; 2 ppm in water): Slight astringency, very slight bitterness, slightly
6 | OC[C@H]1O[C@@](CO)(O[C@H]2O[C@H](CO)[C@@H](O)[C@H](O)[C@H]2O)[C@@H](O)[C@@H]1O [sucrose, reference compound] | – | – | sweet taste (flavor profile) ([1]; sucrose solution (1.5%)): tasted slightly sweet

— US20240000119A1, “MEGASTIGMANE DERIVATIVE COMPOSITIONS AND METHODS FOR TASTE MODULATION” (INTERNATIONAL FLAVORS & FRAGRANCES, priority 2020, published 2024)
